# Measured values: patent US20250161312A1, “A METHOD FOR THE TREATMENT OF CHEMOTHERAPEUTIC DRUG-INDUCED NEPHROTOXICITY” (INSTITUT NATIONAL DE LA SANTÉ ET DE LA RECHERCHE MÉDICALE, priority 2022, published 2025)
# Columns and labels:
# Format in all cases: cell-based, human
# RPTEC/hTERT1 cells [1] = assay: Quantitative RT-PCR of Nrf2 and HO1 in RPTEC/hTERT1 cells; settings: in vitro
# Experimental: (§1) FIG. 6. KW6002 alleviates the cisplatin-induced nephrotoxicity associated with apoptosis, lipid metabolism, and oxidative stress. (A) Tail moment assessed by comet assay; 50 cells/condition were analyzed. (B and C) KW6002 attenuates cisplatin-induced renal lipid accumulation, assessed by Red Oil staining. […] Results are the mean±SEM (n=6-9 mice/group). (F-H) KW6002 attenuated cisplatin-induced oxidative stress in RPTEC/hTERT1 cells. (F and G) Gene expression of Nrf2 (F) and HO1 (G). […] Results are the mean±SEM (n=3 independent experiments).
# Total RNA from kidney samples was extracted with phenol/chloroform and subsequently precipitated in isopropanol as described previously (71). Total RNA from cultured renal cells was extracted using RNeasy Mini kit (Qiagen) following manufacturer's recommendations.
# Reverse transcription was performed on 1 μg of RNA using high-capacity cDNA reverse transcription kit (Thermo Fisher), according the manufacturer's recommendation. Real time PCR was performed on a StepOne device using Taqman Gene Expression Master Mix (Thermo Fisher), following manufacturer's recommendations. […]
# RPTEC/hTERT cells = assay: Cell concentrations of platinum; settings: cisplatin 50 μM, KW-6002 25 μM, 48 hours
# Experimental: Tissues (35 mg) and cell pellets were first mineralized with hydrochloric acid (30% Suprapur, Merck) or nitric acid (69.5%, Carlo Erba), respectively. Analysis of tissue samples was performed by Graphite Furnace Atomic Absorption Spectrometry (GF-AAS) using an Aanalyst 800 (Perkin Elmer)., while cell samples analysis was performed by Inductively Coupled Plasma Mass Spectrometry (ICP-MS) using an ICAP-Qc (Thermo Scientific). Platinum concentration was finally normalized to the accurately measured kidney mass, or to the number of cells previously assessed.
# RPTEC/hTERT1 cells [2] = assay: Comet assay in RPTEC/hTERT1 cells; settings: FIG. 6A
# Experimental: as §1
# Treated cells were suspended (60,000 cells/mL) in low-melt agarose (1613111, Bio-Rad) 0.5% in PBS at 42° C. The suspension was then immediately spread on a comet slide (4250-200-03, R&D Systems). Agarose was allowed to cool down for 20 minutes at 4° C. Then, cell membranes were permeabilized with a lysis solution (2.5M NaCl, 100 mM EDTA, 10 mM Tris-HCl, 1% Triton X-100 [pH 10]) at 4° C. for 1 hour. […] The images were analyzed using an ImageJ in-home macro, in which the head (the nucleus) and tail (the DNA that migrated) of the comet were delimited to get the fluorescence intensity of the head, the fluorescence intensity of the tail, and the length of the tail. The calculation of tail moments was done using the following formula: (length of the comet tail×fluorescence intensity of the tail)/total fluorescence intensity (head+tail).
smiles,measurement,setting,value
"CCn1c(=O)c2c(nc(/C=C/c3ccc(OC)c(OC)c3)n2C)n(CC)c1=O [KW-6002, 8-[(E)-2-(3,4-dimethoxyphenyl)vinyl]-1,3-diethyl-7-methyl-3,7-dihydro-1H-purine-2,6-dione]",cisplatin-induced increase in expression of Nrf2,RPTEC/hTERT1 cells [1]; FIG. 6F,normalized
same,cisplatin-induced increase in expression of HO1,RPTEC/hTERT1 cells [1]; FIG. 6G,normalized
same,accumulation of cisplatin (platinum) in cells,RPTEC/hTERT cells,limits the accumulation of cisplatin
same,cisplatin-induced DNA damage (tail moment),RPTEC/hTERT1 cells [2],inhibiting
